The record followed here is PubChem BioAssay AID248 (DTP/NCI, 2004).

In the assay the test system is L1210 leukemia ip in BDF1 mice, survival T/C. In words: NCI In Vivo Anticancer Drug Screen. Data for tumor model L1210 Leukemia (intraperitoneal) in B6D2F1 (BDF1) mice. Particulars: endpoint: mean survival time, higher = longer survival. An outline of the steps:
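Tumor was transplanted into mice, which were then dosed with test compound or vehicle alone. Survival was recorded for each group, and the treated figure was expressed relative to the control figure.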

Setting [1] is: dose: 100.0 mg/kg/injection, schedule: Q01DX001 (ip), vehicle: Klucel (hydroxypropylcellulose) (HPC).
The mark [2] stands for this setting: dose: 200.0 mg/kg/injection, schedule: Q01DX001 (ip), vehicle: Klucel (hydroxypropylcellulose) (HPC).
Where [3] appears, read: dose: 400.0 mg/kg/injection, schedule: Q01DX001 (ip), vehicle: Klucel (hydroxypropylcellulose) (HPC).
Where [4] appears, read: dose: 100.0 mg/kg/injection, schedule: Q01DX001 (ip), vehicle: saline.
The mark [5] stands for this setting: dose: 200.0 mg/kg/injection, schedule: Q01DX001 (ip), vehicle: saline.
Where [6] appears, read: dose: 400.0 mg/kg/injection, schedule: Q01DX001 (ip), vehicle: saline.
Where [7] appears, read: dose: 100.0 mg/kg/injection, schedule: Q01DX009 (ip), vehicle: Klucel (hydroxypropylcellulose) (HPC).
[8] abbreviates: dose: 200.0 mg/kg/injection, schedule: Q01DX009 (ip), vehicle: Klucel (hydroxypropylcellulose) (HPC).
[9] abbreviates: dose: 400.0 mg/kg/injection, schedule: Q01DX009 (ip), vehicle: Klucel (hydroxypropylcellulose) (HPC).
Setting [10] is: dose: 100.0 mg/kg/injection, schedule: Q04DX003 (ip), vehicle: saline.
The mark [11] stands for this setting: dose: 200.0 mg/kg/injection, schedule: Q04DX003 (ip), vehicle: saline.
The mark [12] stands for this setting: dose: 400.0 mg/kg/injection, schedule: Q04DX003 (ip), vehicle: saline.
Where [13] appears, read: dose: 100.0 mg/kg/injection, schedule: Q01DX009 (ip), vehicle: saline with Tween-80.
[14] abbreviates: dose: 100.0 mg/kg/injection, schedule: Q04DX003 (ip), vehicle: saline with Tween-80.
[15] abbreviates: dose: 200.0 mg/kg/injection, schedule: Q01DX009 (ip), vehicle: saline with Tween-80.
Where [16] appears, read: dose: 200.0 mg/kg/injection, schedule: Q04DX003 (ip), vehicle: saline with Tween-80.
[17] abbreviates: dose: 400.0 mg/kg/injection, schedule: Q01DX009 (ip), vehicle: saline with Tween-80.
[18] abbreviates: dose: 400.0 mg/kg/injection, schedule: Q04DX003 (ip), vehicle: saline with Tween-80.
Setting [19] is: dose: 75.0 mg/kg/injection, schedule: Q01DX001 (ip), vehicle: carboxymethylcellulose (CMC).
[20] abbreviates: dose: 150.0 mg/kg/injection, schedule: Q01DX001 (ip), vehicle: carboxymethylcellulose (CMC).
Setting [21] is: dose: 100.0 mg/kg/injection, schedule: Q04DX003 (ip), vehicle: Klucel (hydroxypropylcellulose) (HPC).
Setting [22] is: dose: 200.0 mg/kg/injection, schedule: Q04DX003 (ip), vehicle: Klucel (hydroxypropylcellulose) (HPC).
[23] abbreviates: dose: 400.0 mg/kg/injection, schedule: Q04DX003 (ip), vehicle: Klucel (hydroxypropylcellulose) (HPC).

Several values for one entry are separate records, joined by “and”; a condition that tells them apart may be missing. Equal values may be shown once. Toxic doses and inconclusive results are not listed.

As for `O=P1(NCCCl)OCCC(OO)N1CCCl` (configuration not stated), the T/C is 155 % of control (dose: 15.0 mg/kg/injection, schedule: Q01DX001 (ip), vehicle: Klucel (hydroxypropylcellulose) (HPC)); 158 % of control (dose: 23.0 mg/kg/injection, schedule: Q01DX001 (ip), vehicle: Klucel (hydroxypropylcellulose) (HPC)); 175 % of control (dose: 34.0 mg/kg/injection, schedule: Q01DX001 (ip), vehicle: Klucel (hydroxypropylcellulose) (HPC)); 188 % of control and 196 % of control (dose: 50.0 mg/kg/injection, schedule: Q01DX001 (ip), vehicle: Klucel (hydroxypropylcellulose) (HPC)); 276 % of control (dose: 75.0 mg/kg/injection, schedule: Q01DX001 (ip), vehicle: Klucel (hydroxypropylcellulose) (HPC)); 182 % of control under setting [1]. In addition, the T/C is 196 % of control under setting [2] and 95 % of control under setting [3].
As to `C1CC2CCCC3C4CCCC5CCCC(C(C1)C23)C54` (configuration not stated), the T/C was 94 % of control under setting [4], 100 % of control under setting [5] and 97 % of control under setting [6].
`NC(=S)N/N=C/c1ccc([N+](=O)[O-])cc1`: the T/C (dose: 12.5 mg/kg/injection, schedule: Q01DX001 (ip), vehicle: saline with Tween-80) is 95 % of control; the T/C (dose: 25.0 mg/kg/injection, schedule: Q01DX001 (ip), vehicle: saline with Tween-80) was 95 % of control; the T/C (dose: 50.0 mg/kg/injection, schedule: Q01DX001 (ip), vehicle: saline with Tween-80) was 91 % of control.
As for `O=C(Nc1ccc(Nc2ccccc2)cc1)Nc1cc(C(F)(F)F)ccc1Cl`, the T/C runs as follows: under setting [7], 103 % of control; under setting [8], 93 % of control; under setting [9], 87 % of control.
With `CCC(C)(O)CCCC(C)C` (configuration not stated), the T/C is, setting by setting: under setting [10], 97 % of control; under setting [11], 100 % of control; under setting [12], 92 % of control.
In the case of `COc1cc2c(c3c1CCC(C)(C)O3)Cc1c(cc(OC)c(OC)c1CCC(C)(C)O)O2`, the T/C is 103 % of control under setting [1], 96 % of control under setting [2] and 92 % of control under setting [3].
For `CCN(CC)CCNc1c(C)cc(CO)c(Cl)c1C`, the T/C reads like this: (dose: 31.25 mg/kg/injection, schedule: Q01DX009 (ip), vehicle: saline) 97 % of control; (dose: 62.5 mg/kg/injection, schedule: Q01DX009 (ip), vehicle: saline) 99 % of control; (dose: 125.0 mg/kg/injection, schedule: Q01DX009 (ip), vehicle: saline) 97 % of control; (dose: 250.0 mg/kg/injection, schedule: Q01DX009 (ip), vehicle: saline) 103 % of control.
In the case of `Cc1cccc(C)c1NC(=O)Oc1ccc(F)cc1Cl`, the T/C is 110 % of control under setting [7] and 97 % of control under setting [8].
In the case of `CC1(C)CCSC(/C=C/c2ccccc2)=N1`, the T/C under setting [10] was 100 % of control, the T/C under setting [11] was 102 % of control and the T/C under setting [12] is 103 % of control.
Regarding `CC(=O)C(C=NCCN=CC(C(C)=O)C(C)=O)C(C)=O.[Ni]`, the T/C runs as follows: (dose: 100.0 mg/kg/injection, schedule: Q04DX002 (ip), vehicle: saline with Tween-80) 98 % of control; (dose: 200.0 mg/kg/injection, schedule: Q04DX002 (ip), vehicle: saline with Tween-80) 98 % of control.
In the case of `O=[N+]([O-])c1cc(Br)cc(Br)c1`, the T/C by setting is: under setting [13], 97 % of control; under setting [14], 91 % of control; under setting [15], 99 % of control; under setting [16], 94 % of control; under setting [17], 93 % of control; under setting [18], 93 % of control.
Take `Cc1ccc(C(=O)Oc2ccc(Cl)c(C)c2Cl)cc1`: the T/C was 91 % of control under setting [19]; 92 % of control under setting [20]; 92 % of control (dose: 300.0 mg/kg/injection, schedule: Q01DX001 (ip), vehicle: carboxymethylcellulose (CMC)).
For `CCCCCCCCCCCCCCCCCOc1ccc2ccccc2c1`, the T/C is 87 % of control (dose: 100.0 mg/kg/injection, schedule: Q01DX001 (ip), vehicle: saline with Tween-80) and 89 % of control (dose: 200.0 mg/kg/injection, schedule: Q01DX001 (ip), vehicle: saline with Tween-80).
As to `COc1cc2c(cc1OC)CC(=O)NC2`, the T/C is 95 % of control under setting [10], 97 % of control under setting [11] and 97 % of control under setting [12].
With `C#CCN(C)/N=N/c1nc[nH]c1C(N)=O`, the T/C reads like this: (dose: 50.0 mg/kg/injection, schedule: Q04DX003 (ip), vehicle: Klucel (hydroxypropylcellulose) (HPC)) 104 % of control; under setting [7], 157 % of control; under setting [21], 109 % of control and 116 % of control; under setting [8], 118 % of control; under setting [22], 108 % of control; under setting [9], 88 % of control. For the same compound, under setting [23], the T/C is 117 % of control.
As for `CCCn1c(=S)[nH]c2ccccc2c1=O`, the T/C was 95 % of control (dose: 100.0 mg/kg/injection, schedule: Q01DX009 (ip), vehicle: saline); 88 % of control under setting [10]; 107 % of control (dose: 200.0 mg/kg/injection, schedule: Q01DX009 (ip), vehicle: saline); 86 % of control under setting [11]; 101 % of control (dose: 400.0 mg/kg/injection, schedule: Q01DX009 (ip), vehicle: saline); 96 % of control under setting [12].
On to `CCN1OCC(C)(C(=O)OC)C1C` (configuration not stated), for which the T/C is 102 % of control under setting [10], 97 % of control under setting [11] and 107 % of control under setting [12].
For `Cc1ccc(C#CP(C#Cc2ccc(C)cc2)C#Cc2ccc(C)cc2)cc1`, the T/C under setting [13] is 88 % of control.
As to `C=CCC(C(C)=O)C(=O)OCC` (configuration not stated), the T/C was 100 % of control under setting [7]; 93 % of control under setting [21]; 96 % of control under setting [8]; 104 % of control under setting [22]; 96 % of control under setting [9]; 97 % of control under setting [23].
With `CC(=O)CCN1CCCCC1`, the T/C (dose: 20.0 mg/kg/injection, schedule: Q04DX003 (ip), vehicle: saline) is 124 % of control.
Regarding `Cc1ccccc1NC(=S)N1CCOCC1`, the T/C was 105 % of control under setting [7], 108 % of control under setting [8] and 111 % of control under setting [9].
In the case of `COc1ccc(Cc2c3cc(OC)c(OC)cc3cc[n+]2Cc2ccc(N(CCCl)CCCl)cc2)cc1OC`, the T/C was 100 % of control under setting [19] and 94 % of control under setting [20].
In the case of `CC(C)CC(=O)Nc1ccc(S(=O)(=O)Cl)cc1`, the T/C is 106 % of control under setting [13]; 92 % of control under setting [14]; 101 % of control under setting [15]; 86 % of control under setting [16]; 94 % of control under setting [17]; 89 % of control under setting [18].
`Cc1ccc(C(OC(=O)c2ccccc2)c2nccc3ccccc23)cc1` (configuration not stated): the T/C under setting [4] was 86 % of control, the T/C under setting [5] was 98 % of control and the T/C under setting [6] was 98 % of control.
Regarding `O=C(/C=C/C(=O)c1ccc(Cl)cc1)c1ccc(Cl)cc1`, the T/C is, setting by setting: (dose: 100.0 mg/kg/injection, schedule: Q01DX009 (ip), vehicle: gum acacia) 95 % of control; (dose: 100.0 mg/kg/injection, schedule: Q04DX003 (ip), vehicle: gum acacia) 97 % of control; (dose: 200.0 mg/kg/injection, schedule: Q01DX009 (ip), vehicle: gum acacia) 95 % of control; (dose: 200.0 mg/kg/injection, schedule: Q04DX003 (ip), vehicle: gum acacia) 95 % of control; (dose: 400.0 mg/kg/injection, schedule: Q01DX009 (ip), vehicle: gum acacia) 101 % of control; (dose: 400.0 mg/kg/injection, schedule: Q04DX003 (ip), vehicle: gum acacia) 95 % of control.
